Source: US20180106782A1, “HIGH THROUGHPUT CARDIOTOXICITY SCREENING PLATFORM” (The Board of Trustees of the Leland Stanford Junior …, priority 2016, published 2018)

Tested on: μpatterned hiPSC-CMs
Experiment: traction force microscopy of moving microbeads under beating μpatterned hiPSC-CMs
Assay type: cell-based, human
Conditions: for absolute values of dmax, VC, VR, ΣFmax, PC and PR: six single cells (FIG. 5)
Method: We cultured single hiPSC-CMs on Matrigel micropatterns, which were transferred from printed glass coverslips onto the surface of polyacrylamide hydrogels with a stiffness of 10 kPa as previously described. (Ribeiro 2015a) In summary, Matrigel was diluted 1:10 in L15 medium (Thermo Fisher) and added to the top of elastomeric microstamps composed of polydimethylsiloxane 182 (Dow Corning) to be incubated at 3-4° C. overnight. Microstamps consisted of 2000 μm^2 rectangular features with an aspect ratio of 7:1 (length:width). We gently aspirated Matrigel after the overnight incubation, washed the stamps twice in L15 medium, aspirated L15 medium from the surface and dried it with a low stream of N2 gas. We then used microstamps to micropattern the Matrigel rectangular features on clean glass coverslips by microcontact printing. Matrigel on micropatterns was transferred to the surface of the polyacrylamide substrates during the gelation process by placing the patterned coverslip in contact with the top of the acrylamide prepolymer solution right before gelation. The aqueous prepolymer solution to be gelled was composed of acrylamide (Sigma-Aldrich)(10% w/v), bisacrylamide (Sigma-Aldrich) (0.1% w/v), ammonium persulfate (Sigma-Aldrich) (0.01% w/v) and N,N,N′,N′-tetramethylethylenediamine (Sigma-Aldrich) (0.1% v/v), HEPES (Thermo Fisher) (35 mM) and Milli-Q water. To calculate the forces generated by cells attached to polyacrylamide surfaces with traction force microscopy, green fluorescent microbeads with a diameter of 0.2 μm (Thermo Fisher) were also dispersed in the gel solution to yield a final concentration of 6.25×10^9 microbeads/mL. We gelled acrylamide on top of another coverslip functionalized with 3-(trimethoxysilyl)propyl methacrylate (Sigma-Aldrich), which binds polyacrylamide. […] Once polymerized, polyacrylamide substrates were incubated in PBS for at least 2 hours and the top coverslips were carefully removed with a razor blade. We seeded hiPSC-CMs on these polyacrylamide hydrogel substrates after washing them 3 times with PBS.
We passaged hiPSC-CMs onto micropatterned polyacrylamide devices at a density of 1000 cells/cm^2. For this purpose, cultures of thawed cells were washed twice with PBS and incubated in 1 mL of Accutase for 8-10 min. After observing cell detachment from the bottom of the wells, we quenched Accutase with Dulbecco's modified Eagle's medium (Thermo Fisher) containing 12% fetal bovine serum and counted the concentration of cells in medium with a hemocytometer. Then, we centrifuged cells at 83 rcf for 3 min at room temperature and aspirated the supernatant to resuspend the pelleted cells in the required volume of medium (RPMI-1640 cell-culture medium with 5 μM ROCK inhibitor) for adding 150 μL of cell solution to the surface of hydrogel devices at a concentration of 1000 cells/cm^2. After 1.5 h of incubation, we added 2.5 mL of medium to the well containing hydrogel devices and added fresh medium without ROCK inhibitor after 2 days. Single beating cells on Matrigel patterns were analyzed between 5-10 days after seeding.
We imaged the movement of beating hiPSC-CMs and the displacement of fluorescent microbeads embedded in polyacrylamide substrates with a Zeiss Axiovert 200M inverted microscope equipped with a Zeiss Axiocam MRm CCD camera. This microscope also contained an environmental chamber (PeCon) to set temperature at 37° C. Unless otherwise noted, we acquired microscopy videos while electrically pacing hiPSC-CMs with 10 ms-wide bipolar pulses of electric-field stimulation at 10-15 V with a frequency of 1 Hz (Myopacer, lonOptix).
To induce contractile changes in hiPSC-CMs, we added drugs known to affect CM contractile machinery to the culture medium. We analyzed the mechanical output of cells after adding drugs. […]

In the case of `CC(C)NCC(O)c1ccc(O)c(O)c1` (stereo not drawn) [isoproterenol], the “t̂ (time between peak velocity of contraction and of relaxation)” value (0.1 μM and 1 μM isoproterenol, six cells, no significant difference between the two concentrations (FIG. 5G)) is reported as “decreased”, the “br (beat rate)” value (0.1 μM and 1 μM isoproterenol, six cells, no significant difference between the two concentrations (FIG. 5H)) is reported as “increased” and the “br (beat rate)” value (0.1 μM isoproterenol, single cell (FIG. 4D)) is reported as “increased”. The “absolute values of dmax, VC, VR, ΣFmax, PC and PR” value (0.1 μM isoproterenol) was “consistently increased”, the “br (beat rate)” value (1 μM isoproterenol, single cell (FIG. 4D)) was “clear increase” and the “ΣFmax, PC and PR” value (1 μM isoproterenol, single cell (FIG. 4D,E)) was “substantial decrease”. For the same molecule, the “absolute values of dmax, VC, VR, ΣFmax, PC and PR” value (1 μM isoproterenol) was “decreased”, the “PR (peak power of relaxation)” value (ISO 0.1 (μM per FIG. 4), single cell, no ISO: 0.28) was 0.36 picoW and the “ΣFmax (peak force)” value (ISO 0.1 (μM per FIG. 4), single cell, no ISO: 0.53) was 0.58 μN. For the same molecule, the “PC (peak power of contraction)” value (ISO 0.1 (μM per FIG. 4), single cell, no ISO: 0.7) was 0.86 picoW, the “VR (peak velocity of relaxation)” value (ISO 0.1 (μM per FIG. 4), single cell, no ISO: 1.05) was 0.85 μm/s and the “VC (peak velocity of contraction)” value (ISO 0.1 (μM per FIG. 4), single cell, no ISO: 1.68) was 1.92 μm/s. The “PR (peak power of relaxation)” value (ISO 1 (μM per FIG. 4), single cell, no ISO: 0.28) was 0.06 picoW, the “ΣFmax (peak force)” value (ISO 1 (μM per FIG. 4), single cell, no ISO: 0.53) was 0.15 μN and the “PC (peak power of contraction)” value (ISO 1 (μM per FIG. 4), single cell, no ISO: 0.7) was 0.1 picoW. For the same molecule, the “VR (peak velocity of relaxation)” value (ISO 1 (μM per FIG. 4), single cell, no ISO: 1.05) was 0.93 μm/s, the “VC (peak velocity of contraction)” value (ISO 1 (μM per FIG. 4), single cell, no ISO: 1.68) was 0.43 μm/s and the “inotropic and chronotropic response” value (extracellular isoproterenol 0.1 μM (FIGS. 4 and 5)) was “positive inotropic and positive chronotropic responses”. The “inotropic and chronotropic response” value (isoproterenol increased to 1 μM (FIGS. 4 and 5)) was “negative inotropic effect, but a stronger chronotropic response”.

With `COC(=O)N1CCN(Cc2cccc(NC(=O)Nc3ccc(C)nc3)c2F)CC1` [omecamtiv mecarbil] the “mechanical output (inotropy)” value (0.1 μM and 10 nM omecamtiv mecarbil, videos within 5 minutes after adding, 6 cells (FIG. 10)) was “decreased mechanical output (negative inotropy)”, the “ΣFmax and br, acute” value (0.1 μM omecamtiv mecarbil, single cell (FIG. 6D)) was “slight acute increase” and the “absolute values of PC and PR right after adding” value (0.1 μM omecamtiv mecarbil, single cell, even decreased in some contractile events (FIG. 6E)) was “did not vary”. For the same molecule, the “PR (peak power of relaxation)” value (OM 0.1 μM (FIG. 6), row 'acute', single cell, no OM: 0.6) was 0.02 picoW, the “ΣFmax (peak force)” value (OM 0.1 μM (FIG. 6), row 'acute', single cell, no OM: 0.7) was 0.14 μN and the “PC (peak power of contraction)” value (OM 0.1 μM (FIG. 6), row 'acute', single cell, no OM: 0.75) was 0.04 picoW. For the same molecule, the “VR (peak velocity of relaxation)” value (OM 0.1 μM (FIG. 6), row 'acute', single cell, no OM: 1.18) was 0.18 μm/s, the “VC (peak velocity of contraction)” value (OM 0.1 μM (FIG. 6), row 'acute', single cell, no OM: 1.35) was 0.29 μm/s and the “PR (peak power of relaxation)” value (OM 0.1 μM (FIG. 6), row 'chronic', single cell, no OM: 0.6) was 0.59 picoW. For the same molecule, the “ΣFmax (peak force)” value (OM 0.1 μM (FIG. 6), row 'chronic', single cell, no OM: 0.7) was 0.72 μN, the “PC (peak power of contraction)” value (OM 0.1 μM (FIG. 6), row 'chronic', single cell, no OM: 0.75) was 0.67 picoW and the “VR (peak velocity of relaxation)” value (OM 0.1 μM (FIG. 6), row 'chronic', single cell, no OM: 1.18) was 1.1 μm/s. For the same molecule, the “VC (peak velocity of contraction)” value (OM 0.1 μM (FIG. 6), row 'chronic', single cell, no OM: 1.35) was 1.22 μm/s, the time of contractions (higher concentrations of omecamtiv mecarbil (FIG. 10D)) was “increase” and the rate of beating (lower concentrations of omecamtiv mecarbil (FIG. 10E)) was “increased”. The “variations of t̂ and br between 0.1 μM and 10 nM” value (omecamtiv mecarbil, within 5 minutes after adding (FIG. 10D,E)) was “statistically different” and the “instantaneous acute inotropic effect” value (within 10 seconds of adding 0.1 μM omecamtiv mecarbil, single cell (FIG. 10J)) was “positive inotropy”.
